# Experimental data as given in PubChem BioAssay (NCI).
#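 Each compound was tested at five concentrations against cells in 96-well plates for 48 hours. The concentration for full growth arrest is given as TGI.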
# How the values were obtained:
# Test in all cases: inhibition of tumour cell growth, NCI panel, 48 h
# MOLT-4 leukemia = test system: MOLT-4 leukemia
# NCI/ADR-RES ovarian = test system: NCI/ADR-RES ovarian
# SK-MEL-28 melanoma = test system: SK-MEL-28 melanoma
# SNB-19 CNS = test system: SNB-19 CNS
# COLO 205 colon = test system: COLO 205 colon
# A549 NSCLC = test system: A549 NSCLC
# RPMI-8226 leukemia = test system: RPMI-8226 leukemia
# OVCAR-8 ovarian = test system: OVCAR-8 ovarian
# SF-268 CNS = test system: SF-268 CNS
# 786-0 renal = test system: 786-0 renal
# HCC-2998 colon = test system: HCC-2998 colon
# HOP-62 NSCLC = test system: HOP-62 NSCLC
# CCRF-CEM leukemia = test system: CCRF-CEM leukemia
# MDA-N = test system: MDA-N
# HS 578T breast = test system: HS 578T breast
# SK-MEL-5 melanoma = test system: SK-MEL-5 melanoma
# UACC-257 melanoma = test system: UACC-257 melanoma
# HT29 colon = test system: HT29 colon
# MCF7 breast = test system: MCF7 breast
# OVCAR-3 ovarian = test system: OVCAR-3 ovarian
# SF-539 CNS = test system: SF-539 CNS
# SNB-75 CNS = test system: SNB-75 CNS
# UACC-62 melanoma = test system: UACC-62 melanoma
# OVCAR-5 ovarian = test system: OVCAR-5 ovarian
# NCI-H460 lung = test system: NCI-H460 lung
# KM12 colon = test system: KM12 colon
# HCT-15 colon = test system: HCT-15 colon
# EKVX NSCLC = test system: EKVX NSCLC
# HCT-116 colon = test system: HCT-116 colon
# M14 melanoma = test system: M14 melanoma
# HOP-92 NSCLC = test system: HOP-92 NSCLC
# NCI-H522 lung = test system: NCI-H522 lung
# T-47D breast = test system: T-47D breast
# TK-10 renal = test system: TK-10 renal
# NCI-H23 lung = test system: NCI-H23 lung
# SR leukemia = test system: SR leukemia
# SW-620 colon = test system: SW-620 colon
# MDA-MB-435 = test system: MDA-MB-435
# SN12C renal = test system: SN12C renal
# UO-31 renal = test system: UO-31 renal
# CAKI-1 renal = test system: CAKI-1 renal
# U251 CNS = test system: U251 CNS
# LOX IMVI melanoma = test system: LOX IMVI melanoma
# HL-60(TB) leukemia = test system: HL-60(TB) leukemia
# SK-MEL-2 melanoma = test system: SK-MEL-2 melanoma
# IGROV1 ovarian = test system: IGROV1 ovarian
# MDA-MB-231 breast = test system: MDA-MB-231 breast
# NCI-H226 lung = test system: NCI-H226 lung
# PC-3 prostate = test system: PC-3 prostate
# SF-295 CNS = test system: SF-295 CNS
# SK-OV-3 ovarian = test system: SK-OV-3 ovarian
# RXF 393 renal = test system: RXF 393 renal
# K-562 leukemia = test system: K-562 leukemia
# ACHN renal = test system: ACHN renal
# DU-145 prostate = test system: DU-145 prostate
# OVCAR-4 ovarian = test system: OVCAR-4 ovarian
# A498 renal = test system: A498 renal
# MALME-3M melanoma = test system: MALME-3M melanoma
structure (smiles),measurement,setting,value
O=C1O/C(=C(/Br)c2ccc(Cl)c(Cl)c2)c2ccccc21,TGI,MOLT-4 leukemia,> 10 µM
same,TGI,NCI/ADR-RES ovarian,> 10 µM
same,TGI,SK-MEL-28 melanoma,> 10 µM
same,TGI,SNB-19 CNS,> 10 µM
same,TGI,COLO 205 colon,> 10 µM
same,TGI,A549 NSCLC,> 10 µM
same,TGI,RPMI-8226 leukemia,> 10 µM
same,TGI,OVCAR-8 ovarian,> 10 µM
same,TGI,SF-268 CNS,> 10 µM
same,TGI,786-0 renal,> 10 µM
same,TGI,HCC-2998 colon,> 10 µM
same,TGI,HOP-62 NSCLC,> 10 µM
same,TGI,CCRF-CEM leukemia,> 10 µM
same,TGI,MDA-N,> 10 µM
same,TGI,HS 578T breast,> 10 µM
same,TGI,SK-MEL-5 melanoma,> 10 µM
same,TGI,UACC-257 melanoma,> 10 µM
same,TGI,HT29 colon,> 10 µM
same,TGI,MCF7 breast,> 10 µM
same,TGI,OVCAR-3 ovarian,> 10 µM
same,TGI,SF-539 CNS,> 10 µM
same,TGI,SNB-75 CNS,> 10 µM
same,TGI,UACC-62 melanoma,> 10 µM
same,TGI,OVCAR-5 ovarian,> 10 µM
same,TGI,NCI-H460 lung,> 10 µM
same,TGI,KM12 colon,> 10 µM
same,TGI,HCT-15 colon,> 10 µM
same,TGI,EKVX NSCLC,> 10 µM
same,TGI,HCT-116 colon,> 10 µM
same,TGI,M14 melanoma,> 10 µM
same,TGI,HOP-92 NSCLC,> 10 µM
same,TGI,NCI-H522 lung,> 10 µM
same,TGI,T-47D breast,> 10 µM
same,TGI,TK-10 renal,> 10 µM
same,TGI,NCI-H23 lung,> 10 µM
same,TGI,SR leukemia,> 10 µM
same,TGI,SW-620 colon,> 10 µM
same,TGI,MDA-MB-435,> 10 µM
same,TGI,SN12C renal,> 10 µM
same,TGI,UO-31 renal,> 10 µM
same,TGI,CAKI-1 renal,> 10 µM
same,TGI,U251 CNS,> 10 µM
same,TGI,LOX IMVI melanoma,> 10 µM
same,TGI,HL-60(TB) leukemia,> 10 µM
same,TGI,SK-MEL-2 melanoma,> 10 µM
same,TGI,IGROV1 ovarian,> 10 µM
same,TGI,MDA-MB-231 breast,> 10 µM
same,TGI,NCI-H226 lung,> 10 µM
same,TGI,PC-3 prostate,> 10 µM
same,TGI,SF-295 CNS,> 10 µM
same,TGI,SK-OV-3 ovarian,> 10 µM
same,TGI,RXF 393 renal,> 10 µM
same,TGI,K-562 leukemia,> 10 µM
same,TGI,ACHN renal,> 10 µM
same,TGI,DU-145 prostate,> 10 µM
same,TGI,OVCAR-4 ovarian,> 10 µM
C/C=C(\C)CC/C=C/CO[Si](C)(C)C(C)(C)C,TGI,MOLT-4 leukemia,81.3 µM
same,TGI,NCI/ADR-RES ovarian,> 100 µM
same,TGI,SK-MEL-28 melanoma,> 100 µM
same,TGI,SNB-19 CNS,> 100 µM
same,TGI,COLO 205 colon,> 100 µM
same,TGI,A549 NSCLC,> 100 µM
same,TGI,RPMI-8226 leukemia,> 100 µM
same,TGI,OVCAR-8 ovarian,> 100 µM
same,TGI,SF-268 CNS,> 100 µM
same,TGI,786-0 renal,> 100 µM
same,TGI,HCC-2998 colon,> 100 µM
same,TGI,HOP-62 NSCLC,> 100 µM
same,TGI,CCRF-CEM leukemia,49.6 µM
same,TGI,MDA-N,> 100 µM
same,TGI,HS 578T breast,> 100 µM
same,TGI,SK-MEL-5 melanoma,> 100 µM
same,TGI,UACC-257 melanoma,> 100 µM
same,TGI,HT29 colon,> 100 µM
same,TGI,MCF7 breast,> 100 µM
same,TGI,OVCAR-3 ovarian,> 100 µM
same,TGI,SF-539 CNS,> 100 µM
same,TGI,SNB-75 CNS,> 100 µM
same,TGI,UACC-62 melanoma,> 100 µM
same,TGI,OVCAR-5 ovarian,> 100 µM
same,TGI,NCI-H460 lung,> 100 µM
same,TGI,KM12 colon,> 100 µM
same,TGI,HCT-15 colon,> 100 µM
same,TGI,EKVX NSCLC,> 100 µM
same,TGI,HCT-116 colon,> 100 µM
same,TGI,M14 melanoma,> 100 µM
same,TGI,NCI-H522 lung,> 100 µM
same,TGI,T-47D breast,> 100 µM
same,TGI,TK-10 renal,> 100 µM
same,TGI,A498 renal,> 100 µM
same,TGI,NCI-H23 lung,> 100 µM
same,TGI,SR leukemia,56.3 µM
same,TGI,SW-620 colon,> 100 µM
same,TGI,MDA-MB-435,> 100 µM
same,TGI,MALME-3M melanoma,> 100 µM
same,TGI,SN12C renal,> 100 µM
same,TGI,UO-31 renal,> 100 µM
same,TGI,CAKI-1 renal,> 100 µM
same,TGI,LOX IMVI melanoma,49.9 µM
same,TGI,HL-60(TB) leukemia,52.1 µM
same,TGI,SK-MEL-2 melanoma,> 100 µM
same,TGI,IGROV1 ovarian,> 100 µM
same,TGI,MDA-MB-231 breast,> 100 µM
same,TGI,NCI-H226 lung,> 100 µM
same,TGI,PC-3 prostate,> 100 µM
same,TGI,SF-295 CNS,> 100 µM
same,TGI,SK-OV-3 ovarian,> 100 µM
same,TGI,RXF 393 renal,> 100 µM
same,TGI,K-562 leukemia,> 100 µM
same,TGI,ACHN renal,> 100 µM
same,TGI,DU-145 prostate,> 100 µM
same,TGI,OVCAR-4 ovarian,> 100 µM
